Test results reported in patent publication US20230286970A1, “NOVEL OXADIAZOLE-BASED SELECTIVE HDAC6 INHIBITORS” (ITALFARMACO S.P.A., priority 2020, published 2023).

Tests used:
[1] = target: recombinant human HDAC1 (Homo sapiens (Human), UniProt Q13547); assay: Enzymatic screening, HDAC1 inhibition (fluorogenic FdL_G substrate); format: biochemical
Outline: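 Recombinant human HDAC1 inhibition was measured fluorometrically using the FLUOR DE LYS-Green (FdL_G) substrate. Compounds at 8 doses (1% DMSO final) in Tris-HCl pH 8 buffer with NaCl, Tween-20 and glycerol were preincubated in triplicate with enzyme and 1 mg/mL BSA, then given substrate. Developer I plus 2 μM TSA was added, and fluorescence read after 25 minutes in the dark.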

[2] = target: recombinant human HDAC6 (Homo sapiens (Human), UniProt Q9UBN7); assay: Enzymatic screening, HDAC6 inhibition (fluorogenic FdL_G substrate); format: biochemical
Outline: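 Enzyme was preincubated with compound (8 doses, triplicate, 1% DMSO) in 25 mM Tris-HCl pH 8, 130 mM NaCl, 0.05% Tween-20, 10% glycerol, with BSA. A FLUOR DE LYS-Green substrate was then added, and fluorescence was read after developer plus 2 μM TSA.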

recombinant human HDAC1, sequence (Q13547 whole entry): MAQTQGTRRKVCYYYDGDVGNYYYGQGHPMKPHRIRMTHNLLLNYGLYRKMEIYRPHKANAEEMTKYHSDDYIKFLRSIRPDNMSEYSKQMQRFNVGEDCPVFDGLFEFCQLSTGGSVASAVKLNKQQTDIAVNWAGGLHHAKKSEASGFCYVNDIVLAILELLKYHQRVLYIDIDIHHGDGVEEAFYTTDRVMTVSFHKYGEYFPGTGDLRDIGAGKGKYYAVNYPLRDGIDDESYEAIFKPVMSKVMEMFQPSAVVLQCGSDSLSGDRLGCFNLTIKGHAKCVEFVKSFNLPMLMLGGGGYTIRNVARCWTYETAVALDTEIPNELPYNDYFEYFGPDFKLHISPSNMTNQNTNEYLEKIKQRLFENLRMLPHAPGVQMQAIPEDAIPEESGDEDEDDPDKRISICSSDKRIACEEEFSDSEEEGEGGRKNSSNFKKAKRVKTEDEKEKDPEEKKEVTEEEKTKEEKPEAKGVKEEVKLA
recombinant human HDAC6, sequence (Q9UBN7 whole entry): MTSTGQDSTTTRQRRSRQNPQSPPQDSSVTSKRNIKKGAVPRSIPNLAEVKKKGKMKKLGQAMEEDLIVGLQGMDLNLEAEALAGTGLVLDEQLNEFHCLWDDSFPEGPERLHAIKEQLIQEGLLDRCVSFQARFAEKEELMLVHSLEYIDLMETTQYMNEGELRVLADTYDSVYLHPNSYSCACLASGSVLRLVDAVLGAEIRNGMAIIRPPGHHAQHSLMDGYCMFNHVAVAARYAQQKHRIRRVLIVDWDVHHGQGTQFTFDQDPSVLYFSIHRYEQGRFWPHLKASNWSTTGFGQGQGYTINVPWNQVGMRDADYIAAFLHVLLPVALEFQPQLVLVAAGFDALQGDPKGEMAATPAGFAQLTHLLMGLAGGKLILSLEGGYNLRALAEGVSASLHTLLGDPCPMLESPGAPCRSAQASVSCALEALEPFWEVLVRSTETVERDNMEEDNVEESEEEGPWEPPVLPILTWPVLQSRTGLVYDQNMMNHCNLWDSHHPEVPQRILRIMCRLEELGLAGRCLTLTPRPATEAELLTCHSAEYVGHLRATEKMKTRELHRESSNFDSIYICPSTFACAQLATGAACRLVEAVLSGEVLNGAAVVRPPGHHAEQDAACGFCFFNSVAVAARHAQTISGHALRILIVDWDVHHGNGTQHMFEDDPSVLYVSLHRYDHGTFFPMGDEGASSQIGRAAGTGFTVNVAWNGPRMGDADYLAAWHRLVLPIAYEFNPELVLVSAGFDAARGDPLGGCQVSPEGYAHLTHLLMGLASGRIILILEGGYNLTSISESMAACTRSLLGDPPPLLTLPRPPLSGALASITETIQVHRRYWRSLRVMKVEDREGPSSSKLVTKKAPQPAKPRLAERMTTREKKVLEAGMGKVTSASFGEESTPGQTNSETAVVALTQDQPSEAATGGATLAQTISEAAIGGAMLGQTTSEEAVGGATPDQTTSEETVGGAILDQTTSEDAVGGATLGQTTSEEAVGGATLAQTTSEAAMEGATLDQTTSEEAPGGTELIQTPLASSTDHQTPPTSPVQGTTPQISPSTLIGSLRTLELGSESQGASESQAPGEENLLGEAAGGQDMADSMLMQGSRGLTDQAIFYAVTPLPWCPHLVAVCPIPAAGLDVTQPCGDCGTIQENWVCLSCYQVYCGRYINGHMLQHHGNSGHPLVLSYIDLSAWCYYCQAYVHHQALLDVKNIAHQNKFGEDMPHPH

SMILES	IC50 [1] [nM]	IC50 [2] [nM]
FC(F)c1nnc(-c2ccc(Cn3nnc(C4(c5ccccn5)CC4)n3)cc2)o1 [compound 147, 2-(difluoromethyl)-5-(4-((5-(1-(pyridin-2-yl)cyclopropyl)-2H-tetrazol-2-yl)methyl)phenyl)-1,3,4-oxadiazole]	> 200000	63
FC(F)c1nnc(-c2ccc(Cn3nnc(-c4ccc(N5CCNCC5)nc4)n3)cc2)o1 [compound 148, 2-(difluoromethyl)-5-(4-((5-(6-(piperazin-1-yl)pyridin-3-yl)-2H-tetrazol-2-yl)methyl)phenyl)-1,3,4-oxadiazole]	> 200000	63
CN1CC(C(=O)Nc2cccc(-c3cn(Cc4ccc(-c5nnc(C(F)F)o5)cc4)nn3)c2)C1 [compound 149, N-(3-(1-(4-(5-(difluoromethyl)-1,3,4-oxadiazol-2-yl)benzyl)-1H-1,2,3-triazol-4-yl)phenyl)-1-methylazetidine-3-carboxamide]	> 200000	64
O=[N+]([O-])c1ccccc1-c1nnn(Cc2ccc(-c3nnc(C(F)F)o3)cc2)n1 [compound 150, 2-(difluoromethyl)-5-(4-((5-(2-nitrophenyl)-2H-tetrazol-2-yl)methyl)phenyl)-1,3,4-oxadiazole]	> 200000	64
Nc1nc2cc(-c3nnn(Cc4ccc(-c5nnc(C(F)F)o5)cc4)n3)ccc2o1 [compound 152, 5-(2-(4-(5-(difluoromethyl)-1,3,4-oxadiazol-2-yl)benzyl)-2H-tetrazol-5-yl)benzo[d]oxazol-2-amine]	> 200000	65
FC(F)c1nnc(-c2ccc(Cn3nnc(-c4cccc5cnccc45)n3)cc2)o1 [compound 153, 2-(difluoromethyl)-5-(4-((5-(isoquinolin-5-yl)-2H-tetrazol-2-yl)methyl)phenyl)-1,3,4-oxadiazole]	> 200000	66
NCc1ccc(-c2cn(Cc3ccc(-c4nnc(C(F)F)o4)cc3)nn2)cn1 [compound 155, (5-(1-(4-(5-(difluoromethyl)-1,3,4-oxadiazol-2-yl)benzyl)-1H-1,2,3-triazol-4-yl)pyridin-2-yl)methanamine]	> 200000	69
O=C(Nc1cccc(-c2nnn(Cc3ccc(-c4nnc(C(F)F)o4)cc3)n2)c1)c1ccccc1 [compound 156, N-(3-(2-(4-(5-(difluoromethyl)-1,3,4-oxadiazol-2-yl)benzyl)-2H-tetrazol-5-yl)phenyl)benzamide]	> 200000	70
Nc1cc(-c2nnn(Cc3c(F)cc(-c4nnc(C(F)F)o4)cc3F)n2)ccc1OC(=O)N1CCOCC1 [compound 160, 2-amino-4-(2-(4-(5-(difluoromethyl)-1,3,4-oxadiazol-2-yl)-2,6-difluorobenzyl)-2H-tetrazol-5-yl)phenyl morpholine-4-carboxylate]	> 200000	74
O=C1Nc2cc(-c3cn(Cc4ccc(-c5nnc(C(F)F)o5)cc4)nn3)ccc2C12CCNCC2 [compound 161, 6-(1-(4-(5-(difluoromethyl)-1,3,4-oxadiazol-2-yl)benzyl)-1H-1,2,3-triazol-4-yl)spiro[indoline-3,4′-piperidin]-2-one]	> 200000	75
Cn1c(=N)n(C)c2cc(-c3cn(Cc4ccc(-c5nnc(C(F)F)o5)cc4)nn3)ccc21 [compound 162, 5-(1-(4-(5-(difluoromethyl)-1,3,4-oxadiazol-2-yl)benzyl)-1H-1,2,3-triazol-4-yl)-1,3-dimethyl-1,3-dihydro-2H-benzo[d]imidazol-2-imine]	45100	76
CN(C)S(=O)(=O)c1ccc(F)c(-c2nnn(Cc3ccc(-c4nnc(C(F)F)o4)cc3)n2)c1 [compound 163, 3-(2-(4-(5-(difluoromethyl)-1,3,4-oxadiazol-2-yl)benzyl)-2H-tetrazol-5-yl)-4-fluoro-N,N-dimethylbenzenesulfonamide]	> 200000	77
CNc1ccc(-c2nnn(Cc3ccc(-c4nnc(C(F)F)o4)cc3)n2)cc1N [compound 164, 4-(2-(4-(5-(difluoromethyl)-1,3,4-oxadiazol-2-yl)benzyl)-2H-tetrazol-5-yl)-N-1-methylbenzene-1,2-diamine]	> 200000	77
CC(c1ccc(-c2nnc(C(F)F)o2)cc1F)n1cc(-c2cccc(NC(=O)N3CCOCC3)c2)nn1 (stereo not shown) [compound 165, N-(3-(1-(1-(4-(5-(difluoromethyl)-1,3,4-oxadiazol-2-yl)-2-fluorophenyl)ethyl)-1H-1,2,3-triazol-4-yl)phenyl)morpholine-4-carboxamide]	> 200000	78
Cn1c(N)nc2ccc(-c3cn(Cc4ccc(-c5nnc(C(F)F)o5)cc4)nn3)cc21 [compound 166, 6-(1-(4-(5-(difluoromethyl)-1,3,4-oxadiazol-2-yl)benzyl)-1H-1,2,3-triazol-4-yl)-1-methyl-1H-benzo[d]imidazol-2-amine]	> 200000	78
O=C1NCc2cc(-c3nnn(Cc4ccc(-c5nnc(C(F)F)o5)cc4)n3)ccc21 [compound 167, 5-(2-(4-(5-(difluoromethyl)-1,3,4-oxadiazol-2-yl)benzyl)-2H-tetrazol-5-yl)isoindolin-1-one]	> 200000	79
O=c1[nH]c2ccc(-c3nnn(Cc4ccc(-c5nnc(C(F)F)o5)cc4)n3)cc2[nH]1 [compound 168, 5-(2-(4-(5-(difluoromethyl)-1,3,4-oxadiazol-2-yl)benzyl)-2H-tetrazol-5-yl)-1,3-dihydro-2H-benzo[d]imidazol-2-one]	> 200000	79
CCS(=O)(=O)N1CCN(Cc2ccc(-c3cn(Cc4c(F)cc(-c5nnc(C(F)F)o5)cc4F)nn3)cc2)CC1 [compound 169, 2-(difluoromethyl)-5-(4-((4-(4-((4-(ethylsulfonyl)piperazin-1-yl)methyl)phenyl)-1H-1,2,3-triazol-1-yl)methyl)-3,5-difluorophenyl)-1,3,4-oxadiazole]	> 200000	81
CN1CCc2ccc(-c3nnn(Cc4ccc(-c5nnc(C(F)F)o5)cc4)n3)cc2C1=O [compound 173, 7-(2-(4-(5-(difluoromethyl)-1,3,4-oxadiazol-2-yl)benzyl)-2H-tetrazol-5-yl)-2-methyl-3,4-dihydroisoquinolin-1 (2H)-one]	> 200000	86
NC(=S)Nc1cccc(-c2cn(Cc3c(F)cc(-c4nnc(C(F)F)o4)cc3F)nn2)c1 [compound 175, 1-(3-(1-(4-(5-(difluoromethyl)-1,3,4-oxadiazol-2-yl)-2,6-difluorobenzyl)-1H-1,2,3-triazol-4-yl)phenyl)thiourea]	> 200000	88
CNc1ccc(-c2nnn(Cc3ccc(-c4nnc(C(F)F)o4)cc3)n2)cc1NC(=O)N1CCOCC1 [compound 176, N-(5-(2-(4-(5-(difluoromethyl)-1,3,4-oxadiazol-2-yl)benzyl)-2H-tetrazol-5-yl)-2-(methylamino)phenyl)morpholine-4-carboxamide]	> 200000	88
CC(C)(C)OC(=O)N1CCC2(C1)C(=O)Nc1ccc(-c3cn(Cc4ccc(-c5nnc(C(F)F)o5)cc4)nn3)cc12 (stereo not shown) [compound 177, tert-butyl 5-(1-(4-(5-(difluoromethyl)-1,3,4-oxadiazol-2-yl)benzyl)-1H-1,2,3-triazol-4-yl)-2-oxospiro[indoline-3,3′-pyrrolidine]-1′-carboxylate]	> 200000	89
Nc1ncnc2sc(-c3cn(Cc4ccc(-c5nnc(C(F)F)o5)cc4)nn3)cc12 [compound 178, 6-(1-(4-(5-(difluoromethyl)-1,3,4-oxadiazol-2-yl)benzyl)-1H-1,2,3-triazol-4-yl)thieno[2,3-d]pyrimidin-4-amine]	> 200000	89
CN(Cc1ccncc1)Cc1ccc(-c2cn(Cc3c(F)cc(-c4nnc(C(F)F)o4)cc3F)nn2)cc1 [compound 179, N-(4-(1-(4-(5-(difluoromethyl)-1,3,4-oxadiazol-2-yl)-2,6-difluorobenzyl)-1H-1,2,3-triazol-4-yl)benzyl)-N-methyl-1-(pyridin-4-yl)methanamine]	> 200000	90
CCNc1cccc(-c2cn(Cc3ccc(-c4nnc(C(F)F)o4)cc3)nn2)c1 [compound 180, 3-(1-(4-(5-(difluoromethyl)-1,3,4-oxadiazol-2-yl)benzyl)-1H-1,2,3-triazol-4-yl)-N-ethylaniline]	> 200000	92
Fc1ccccc1-c1nnn(Cc2ccc(-c3nnc(C(F)F)o3)cc2)n1 [compound 181, 2-(difluoromethyl)-5-(4-((5-(2-fluorophenyl)-2H-tetrazol-2-yl)methyl)phenyl)-1,3,4-oxadiazole]	> 200000	92
CC(=O)N(Cc1ccco1)c1cccc(-c2cn(Cc3c(F)cc(-c4nnc(C(F)F)o4)cc3F)nn2)c1 [compound 183, N-(3-(1-(4-(5-(difluoromethyl)-1,3,4-oxadiazol-2-yl)-2,6-difluorobenzyl)-1H-1,2,3-triazol-4-yl)phenyl)-N-(furan-2-ylmethyl)acetamide]	> 200000	93
FC(F)c1nnc(-c2ccc(Cn3nnc(-c4cccc(-n5cccn5)c4)n3)cc2)o1 [compound 188, 2-(4-((5-(3-(1H-pyrazol-1-yl)phenyl)-2H-tetrazol-2-yl)methyl)phenyl)-5-(difluoromethyl)-1,3,4-oxadiazole]	> 200000	99
CC(c1ccc(-c2nnc(C(F)F)o2)c(F)c1)n1cc(-c2cccc(NC(=O)N3CCOCC3)c2)nn1 (stereo not shown) [compound 189, N-(3-(1-(1-(4-(5-(difluoromethyl)-1,3,4-oxadiazol-2-yl)-3-fluorophenyl)ethyl)-1H-1,2,3-triazol-4-yl)phenyl)morpholine-4-carboxamide]	> 200000	99
